Measured values reported in paper PMC9266914, “Broad Spectrum Functional Activity of Structurally Related Monoanionic Au(III) Bis(Dithiolene) Complexes” (International Journal of Molecular Sciences, 2022).
Where two headings read alike, the source gives them in different places.

Legend:
[1] = test system: A2780 ovarian cancer cells; parameters: method as in PMID 32391537; conditions: MTT, starred values, cited from earlier work
C. albicans SC5134 = test system: C. albicans SC5134; parameters: method as in PMID 32391537; conditions: complexes starred as Complex 1 / Complex 2; cited from earlier work
[2] = test system: OVCAR8 ovarian cancer cells; experiment: MTT cytotoxicity assay in OVCAR8 (cisplatin resistant) ovarian cancer cells; assay type: cell-based, human; conditions: 48 h incubation
Procedure: (§1) Cells were exposed to increasing concentrations of the complexes (0.01–100 μM) for 24 and/or 48 h, at 37 °C. The IC50 values were calculated from dose–response curves using the colorimetric MTT assay. […] Most complexes presented a similar cytotoxicity profile compared to Auranofin, but higher activity compared to Cisplatin, and, most importantly, were active in the Cisplatin-resistant OVCAR8 cells (Table 2).
(§2) The cytotoxic activity of the complexes was evaluated in the A2780 (cisplatin sensitive) (Sigma-Aldrich) and OVCAR8 (cisplatin resistant) (ATCC) ovarian cancer cells. Cells were grown in RPMI-1640 medium (Gibco, Thermo Fisher) supplemented with 10% fetal bovine serum (FBS) and were maintained at 37 °C in a humidified atmosphere with 5% CO2. The complexes were initially dissolved in DMSO and then in culture medium to prepare serial dilutions in the range 10^−9–10^−4 M. After 24 and/or 48 h incubation the cellular viability was measured by the colorimetric MTT assay, as previously described.

E. coli ATCC25922 = test system: E. coli ATCC25922; parameters: method as in PMID 32391537; conditions: complexes starred as Complex 1 / Complex 2; cited from earlier work
S. aureus Newman = test system: S. aureus Newman; parameters: method as in PMID 32391537; conditions: complexes starred as Complex 1 / Complex 2; cited from earlier work
C. glabrata CBS138 = test system: C. glabrata CBS138; parameters: method as in PMID 32391537; conditions: complexes starred as Complex 1 / Complex 2; cited from earlier work
[3] = test system: A2780 ovarian cancer cells; experiment: MTT cytotoxicity assay in A2780 (cisplatin sensitive) ovarian cancer cells; assay type: cell-based, human; conditions: 24 h incubation, read-out: IC50 A2780, 24 h
Procedure: as §1, §2

ΦX174 supercoiled DNA = experiment: Electrophoretic mobility of supercoiled DNA; assay type: binding; conditions: 24 h, 37 °C, in words
Procedure: The potential interaction of the complexes with DNA was evaluated through the assessment of the electrophoretic mobility of supercoiled ϕX174 DNA, using a previously described method. To that end, a mixture was prepared containing 200 ng of supercoiled ϕX174 DNA (Promega) in 10 mM of phosphate buffer (pH 7.2) and increasing concentrations of Cisplatin, as a positive control, or the metal complexes (in a total volume of 20 μL). The mixture was incubated for 24 h at 37 °C, in the dark. As controls, samples having non-incubated plasmid and plasmid incubated with DMSO were also prepared. Then, all samples were prepared for electrophoresis through the addition of 2 μL of 10× DNA loading buffer (Applichem) and loading on an 0.8% agarose gel in TBE buffer (Thermo Fisher Scientific, Waltham, MA, USA). The gel was run at 90 V for approximately 3 h, stained using a 3× GelRed® (Biotium) solution in H2O, and the bands visualized using an AlphaImagerEP (Alpha Innotech) under UV light.

[4] = molecular target: human serum albumin (HSA) (Homo sapiens, UniProt P02768); parameters: method as in PMID 26469679, PMID 22835721, PMID 32283915, doi:10.1016/j.jlumin.2011.06.005; conditions: cited from earlier work
[5] = 48 h incubation, read-out: IC50 A2780, 48 h

human serum albumin (HSA), sequence (P02768 25-609): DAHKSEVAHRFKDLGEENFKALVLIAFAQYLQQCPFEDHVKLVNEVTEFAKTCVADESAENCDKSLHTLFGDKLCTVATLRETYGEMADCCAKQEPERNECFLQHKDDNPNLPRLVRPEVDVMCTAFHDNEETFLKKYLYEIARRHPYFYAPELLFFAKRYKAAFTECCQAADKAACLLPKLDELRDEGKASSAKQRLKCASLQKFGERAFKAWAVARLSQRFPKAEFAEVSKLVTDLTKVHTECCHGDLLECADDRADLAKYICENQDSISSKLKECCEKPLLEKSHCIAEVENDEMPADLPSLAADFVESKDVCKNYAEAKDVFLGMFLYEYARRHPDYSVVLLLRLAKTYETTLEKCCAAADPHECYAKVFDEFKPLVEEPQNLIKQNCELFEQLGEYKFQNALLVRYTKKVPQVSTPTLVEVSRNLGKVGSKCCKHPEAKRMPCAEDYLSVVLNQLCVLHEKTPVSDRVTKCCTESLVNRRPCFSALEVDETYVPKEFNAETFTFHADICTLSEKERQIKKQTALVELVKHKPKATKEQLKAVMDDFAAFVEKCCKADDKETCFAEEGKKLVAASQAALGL

In the case of `CC[N+](CC)(CC)CC.CCn1c2c(sc1=S)[S][Au-]1([S]c3sc(=S)n(CC)c3[S]1)[S]2` [[N][AuSEt(=S)]], the IC50 ([1]; 24 h incubation, read-out: IC50 A2780, 24 h) is given as 4.23 ± 0.8 µM, the IC50 [1, 5] is given as 1.3 ± 0.32 µM and the “MIC C. albicans SC5134” value (C. albicans SC5134) is given as 19.9 ± 2.4 µg/mL. For the same molecule, the IC50 [2] was 3.76 ± 0.71 µM, the “MIC E. coli ATCC25922” value (E. coli ATCC25922) was over 125 µg/mL and the “MIC S. aureus Newman” value (S. aureus Newman) was 12.1 ± 3.9 µg/mL. For the same molecule, the “MIC C. glabrata CBS138” value (C. glabrata CBS138) was 9.7 ± 2.7 µg/mL.
For `N.N.[Cl][Pt][Cl]` [Cisplatin, reference compound], the IC50 [1, 5] is listed as 3.6 ± 1.25 µM, the IC50 [3] is listed as 21.1 ± 5 µM and the “conformational changes / electrophoretic mobility of DNA” value (ΦX174 supercoiled DNA) is listed as “able to alter the electrophoretic mobility of the nicked and supercoiled forms of DNA in a dose-dependent way”. For the same molecule, the “binding constant to HSA” value [4] was 10^2 M^−1 and the IC50 [2] was 10.1 ± 2.3 µM.
